Data on 15 compounds can be found in publication PMC11721041 (Molecules, 2024).

“And” between values parts separate entries of the source, which are not always exact repeats. Equal entries are not always repeated. Where two headings read alike, the source gives them in different places. Where only a bound is given, the exact number is not on record here.

As usually defined, the IC50 is the point on the concentration scale where inhibition reaches its midpoint.

In series [1] the target is T1, Acetylcholinesterase from Electrophorus electricus (electric eel) (Electrophorus electricus, UniProt O42275).
T1 construct: purchased Sigma-Aldrich C2888
T1 sequence (O42275 24-633): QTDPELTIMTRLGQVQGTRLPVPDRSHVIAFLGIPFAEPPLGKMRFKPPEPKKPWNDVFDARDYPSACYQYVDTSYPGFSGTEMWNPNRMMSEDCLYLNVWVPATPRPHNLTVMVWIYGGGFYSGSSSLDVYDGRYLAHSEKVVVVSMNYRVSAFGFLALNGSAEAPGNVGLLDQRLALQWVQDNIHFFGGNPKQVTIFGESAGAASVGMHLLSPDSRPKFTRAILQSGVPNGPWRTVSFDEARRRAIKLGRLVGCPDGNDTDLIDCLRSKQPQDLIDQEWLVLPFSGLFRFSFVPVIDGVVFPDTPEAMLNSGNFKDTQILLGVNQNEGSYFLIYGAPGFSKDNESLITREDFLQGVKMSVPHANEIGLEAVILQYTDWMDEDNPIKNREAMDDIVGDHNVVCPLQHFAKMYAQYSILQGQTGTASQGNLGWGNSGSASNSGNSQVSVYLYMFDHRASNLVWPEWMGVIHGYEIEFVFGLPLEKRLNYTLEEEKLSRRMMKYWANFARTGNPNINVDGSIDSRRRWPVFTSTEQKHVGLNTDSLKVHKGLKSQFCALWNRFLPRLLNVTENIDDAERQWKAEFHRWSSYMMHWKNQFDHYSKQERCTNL
Nature of the series: In vitro AChE inhibition assay (modified Ellman's method). Format: biochemical. Particulars: for IC50: IC50 against AChE enzyme, triplicate; for IC50 / AChE inhibitory activity (in words): electric eel AChE, Ellman's assay; for times more active than 3-oxo-analog: indole derivative vs its 3-oxo amide. The procedure:
Acetylcholinesterase from Electrophorus electricus (electric eel) (AChE, Sigma C2888), sodium phosphate buffer (PBS) 0.1 M pH 7.4, acetylthiocholine iodide (ACT, Sigma A5751), and 5,5′-dithiobis-(2-nitrobenzoic acid) (DTNB, Sigma D8130) were purchased from Sigma-Aldrich (St. Louis, MO, USA). In vitro anti-AChE activity was performed based on the modified Ellman’s method. […] The IC50 values were determined graphically from inhibition curves (log inhibitor concentration vs. percent of inhibition). All experiments were performed in triplicate. Donepezil was used as a positive control
For orientation: Ellman's reagent forms a yellow product with free thiols.

Series [2] addresses butyrylcholinesterase (BChE). Particulars: cited from earlier work; for BChE activity (in words): native triterpenic acids.
The next series has as its system AChE. Particulars: cited from earlier work; for type of inhibition of AChE: native triterpenic acids.
For series [3], the target named is T2, recombinant human acetylcholinesterase (hAChE) (Homo sapiens, UniProt P22303).
T2 construct: purchased Sigma-Aldrich
T2 sequence (P22303 32-614): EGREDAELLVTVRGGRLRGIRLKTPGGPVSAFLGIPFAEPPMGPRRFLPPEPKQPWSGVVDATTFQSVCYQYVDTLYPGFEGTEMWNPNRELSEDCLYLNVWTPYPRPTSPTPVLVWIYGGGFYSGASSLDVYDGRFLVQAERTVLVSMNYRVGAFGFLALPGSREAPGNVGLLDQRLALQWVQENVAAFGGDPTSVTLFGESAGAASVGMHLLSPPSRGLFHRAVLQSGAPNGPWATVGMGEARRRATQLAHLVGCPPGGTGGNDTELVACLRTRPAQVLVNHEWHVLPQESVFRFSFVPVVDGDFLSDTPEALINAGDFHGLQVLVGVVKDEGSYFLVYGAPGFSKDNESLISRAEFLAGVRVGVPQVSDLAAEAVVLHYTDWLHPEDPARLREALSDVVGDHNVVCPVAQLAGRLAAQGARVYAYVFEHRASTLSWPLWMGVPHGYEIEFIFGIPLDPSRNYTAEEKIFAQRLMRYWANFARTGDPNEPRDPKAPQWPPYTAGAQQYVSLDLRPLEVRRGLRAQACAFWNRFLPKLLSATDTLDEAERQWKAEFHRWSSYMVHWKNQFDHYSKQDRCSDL
Description: In vitro inhibition of recombinant human AChE (Ellman's method), IC50. Particulars: 1 mM ATC, pH 8.0, 25 °C, read-out: IC50 against hAChE enzyme. The class given is biochemical. As to the method:
Acetylthiocholine iodide (ATC), recombinant human acetylcholinesterase (hAChE), and 5,5′-dithio-bis-(2-nitrobenzoic) acid (DTNB) were purchased from Sigma-Aldrich (Sigma-Aldrich). Dimethyl sulfoxide (DMSO) was purchased from PanReac AppliChem GmbH (Darmstadt, Germany). All other chemicals were of biochemical grade. All assays were performed at 25 °C using a UV-1800 Shimadzu (Kyoto, Japan) spectrophotometer at 412 nm. The inhibitory potency of compounds against hAChE was studied using Ellman’s method. Stock solutions of compounds (0.01 M) were prepared using DMSO. The final concentration of DMSO in the cuvette was less than 0.05% vol. The inhibitory effect against AChE of 0.05% DMSO was considered weak. To determine the IC50 (the concentration of the compound producing 50% enzyme activity inhibition), enzyme-catalyzed hydrolysis was carried out in 0.1 M phosphate buffer (pH 8.0) containing hAChE in the picomolar range, DTNB (0.1 mM final concentration), and 1 mM ATC as substrate. […] Then, absorbance change was recorded for 2 min. […] The percentage of hAChE inhibition was determined by comparison of rates of reaction of test samples relative to the control sample. […] IC50 was calculated using the Hill Equation: E/Emax=I^n/IC50n+I^n where E is the enzyme activity and [I] is the compound concentration.

Series [4] concerns the target T2, recombinant human acetylcholinesterase (hAChE). Nature of the series: hAChE inhibition constants and inhibition type (Dixon and Cornish-Bowden plots). Particulars: for type of AChE inhibition: Dixon and Cornish-Bowden plots. Format: biochemical. As to the method: The inhibition constants for hAChE were determined in 0.1M sodium phosphate buffer (pH 8.0) with various ATC concentrations in the range 0.1–1 mM. The rate of hydrolysis of ATC was measured after the addition of DTNB (0.1 mM final concentration) and enzyme. The final enzyme concentration in the assays was in the picomolar range. Controls of the active enzyme with 0.05% DMSO and ATC spontaneous hydrolysis in the absence of an inhibitor were performed for each substrate concentration. The rate of substrate hydrolysis was recorded by monitoring the linear optical density change at 412 nm for 5 min. Experiments were performed in triplicate. Inhibition constants were determined from the Dixon plot and Cornish-Bowden transformation using OriginPro 8.5 software (OriginLab Corporation, Northampton, MA, USA).

Series [5] deals with human T-lymphoblastic leukemia cancer cells. Particulars: cited from earlier work.
On the set-up of series [6]: method as in PMID 32090748. Particulars: combination with SSRIs, patients with MDD; cited from earlier work.

For the compound `CC1(C)c2[nH]c3ccccc3c2C[C@@]2(C)C1CC[C@]1(C)C2CC=C2C3C[C@@](C)(C(=O)NC4CN5CCC4CC5)CC[C@]3(C)CC[C@]21C` (mixture of isomers) [Compound 13, [3,2b]Indolo-11-dezoxo-olean-12-en-30-((±)-3-aminoquinuclidine) amide], in series [1], the IC50 is over 128 µM and the “AChE inhibitory activity (in words)” value was “weak activity”.

Take N-benzyl-3-benzamidoquinuclidine: in series [2] (read-out: Ki, butyrylcholinesterase inhibitory activity), the Ki was 3.7 µM.

Turning to `CC1(C)C(=O)CC[C@@]2(C)C1CC[C@]1(C)C2CC=C2C3C[C@@](C)(C(=O)NC4CN5CCC4CC5)CC[C@]3(C)CC[C@]21C` (mixture of isomers) [Compound 9, 3-oxo-11-dezoxo-olean-12-en-30-((±)-3-aminoquinuclidine) amide], in series [1], the IC50 was 29 µM and 28.9 µM; the “AChE inhibitory activity (in words)” value is on record as “weak activity”.

For `CC(=O)O[C@H]1CC[C@@]2(C)C(CC[C@]3(C)C2CCC2C4[C@H](C(C)=O)CC[C@]4(C(=O)NCCN4CCCC4)CC[C@]23C)C1(C)C` (stereo partly drawn), the Ki in series [2] (read-out: Ki against BChE) was 0.07 µM.

As for `CC1(C)CC[C@]2(C(=O)O)CC[C@]3(C)C(=CC[C@@H]4[C@@]5(C)CC[C@H](O)C(C)(C)[C@@H]5CC[C@]43C)[C@@H]2C1` [OA, oleanolic acid], in series [2], the “BChE activity (in words)” value is on record as “inactivity”. In the series on AChE, the “type of inhibition of AChE” value is recorded as “competitive”.

Take `C[C@H]1[C@H](C)CC[C@]2(C(=O)O)CC[C@]3(C)C(=CC[C@@H]4[C@@]5(C)CC[C@H](O)C(C)(C)[C@@H]5CC[C@]43C)[C@H]12` [UA, ursolic acid]: the “BChE activity (in words)” value in series [2] was “inactivity”. Besides, in the series on AChE, the “type of inhibition of AChE” value is “mixed”.

With `C[C@@H]1CC[C@]2(C(=O)NC3CN4CCC3CC4)CC[C@]3(C)C(=CCC4[C@@]5(C)CCC(=O)C(C)(C)C5CC[C@]43C)C2[C@H]1C` (mixture of isomers) [Compound 8, 3-oxo-urs-12-en-28-((±)-3-aminoquinuclidine) amide], the IC50 in series [3] worked out at 5.33 ± 1.6 µM; in series [1], 0.43 ± 0.02 µM. The “times less active than donepezil” value in series [1] (ratio of AChE IC50 values) stood at 14.8 times. In addition, in series [4], the “type of AChE inhibition” value is “mixed-type inhibitor”. Besides, the “Kui (uncompetitive inhibition constant)” value in series [4] (hAChE, ATC 0.1–1 mM, pH 8.0) is on record as 22.8 ± 1.5 µM. Moreover, the Ki in series [4] (hAChE, ATC 0.1–1 mM, pH 8.0, read-out: Kci (competitive inhibition constant)) was determined as 6.8 ± 0.4 µM.

In the case of `C=C(C)[C@@H]1CC[C@]2(C(=O)NC3CN4CCC3CC4)CC[C@]3(C)C(CCC4[C@@]5(C)Cc6c([nH]c7ccccc67)C(C)(C)C5CC[C@]43C)C12` (mixture of isomers) [Compound 10, [3,2b]Indolo-lup-20-en-28-((±)-3-aminoquinuclidine) amide], the IC50 in series [1] is 4.77 ± 0.21 µM. In addition, the “times more active than 3-oxo-analog” value in series [1] (ratio of AChE IC50 values) turned out to be 3.5 times.

As for `C[C@@H]1CC[C@@]2(OC1)O[C@H]1C[C@H]3[C@@H]4CC=C5C[C@@H](O)CC[C@]5(C)[C@H]4CC[C@]3(C)[C@H]1[C@@H]2C` [diosgenin], the “cytotoxicity (in words)” value in series [5] is “does not exhibit cytotoxicity”.

`C=C(C)[C@@H]1CC[C@]2(C(=O)NC3CN4CCC3CC4)CC[C@]3(C)C(CCC4[C@@]5(C)CCC(=O)C(C)(C)C5CC[C@]43C)C12` (mixture of isomers) [Compound 6, 3-oxo-lup-20-en-28-((±)-3-aminoquinuclidine) amide]: in series [1], the IC50 amounted to 17 ± 1.04 µM and the “AChE inhibitory activity (in words)” value is recorded as “weak activity”.

Regarding `CC1(C)CC[C@]2(C(=O)NC3CN4CCC3CC4)CC[C@]3(C)C(=CCC4[C@@]5(C)Cc6c([nH]c7ccccc67)C(C)(C)C5CC[C@]43C)C2C1` (mixture of isomers) [Compound 11, [3,2b]Indolo-olean-12-en-28-((±)-3-aminoquinuclidine) amide], the IC50 amounted to 8.89 ± 0.4 µM in series [3] and 0.47 ± 0.03 µM in series [1]. Further, in series [1], the “AChE inhibitory activity (in words)” value is “weak activity”. In series [1] (ratio of AChE IC50 values), the “times more active than 3-oxo-analog” value came to 3.5 times. The “type of AChE inhibition” value was “uncompetitive type of inhibition” in series [4] and “uncompetitive-type inhibitor” in series [4] (listed as 2,3-indolo-oleanolic acid amide). The “Kui (uncompetitive inhibition constant)” value in series [4] (hAChE, ATC 0.1–1 mM, pH 8.0) is given as 19.1 ± 5.1 µM.

On to `CC1(C)[C@@H](O[C@H]2O[C@H](C(=O)O)[C@@H](O)[C@H](O)[C@H]2O[C@@H]2O[C@H](C(=O)O)[C@@H](O)[C@H](O)[C@H]2O)CC[C@]2(C)[C@H]3C(=O)C=C4[C@@H]5C[C@@](C)(C(=O)O)CC[C@]5(C)CC[C@@]4(C)[C@]3(C)CC[C@@H]12` [glycyrrhizic acid, Glycyrrhizic acid], for which the “clinical effect of adjunctive therapy (in words)” value in series [6] was “impressively greater symptomatic improvement, better treatment response, and a faster onset of clinical effects”.

For the compound `C[C@@H]1CC[C@]2(C(=O)NC3CN4CCC3CC4)CC[C@]3(C)C(=CCC4[C@@]5(C)Cc6c([nH]c7ccccc67)C(C)(C)C5CC[C@]43C)C2[C@H]1C` (mixture of isomers) [Compound 12, [3,2b]Indolo-urs-12-en-28-((±)-3-aminoquinuclidine) amide], in series [1], 18 ± 1.39 µM corresponded to half-maximal inhibition (IC50) and the “AChE inhibitory activity (in words)” value was “weak activity”.

Turning to `C=C(C)[C@@H]1CC[C@]2(C(=O)NCCN3CCCCC3)CC[C@]3(C)C(CCC4[C@@]5(C)CC[C@H](O)C(C)(C)C5CC[C@]43C)C12` (stereo partly drawn), at AChE (selective inhibition of AChE), the Ki is 1 µM.

Turning to `CC1(C)CC[C@]2(C(=O)NC3CN4CCC3CC4)CC[C@]3(C)C(=CCC4[C@@]5(C)CCC(=O)C(C)(C)C5CC[C@]43C)C2C1` (mixture of isomers) [Compound 7, 3-oxo-olean-12-en-28-((±)-3-aminoquinuclidine) amide], the IC50 in series [1] came to 1.67 ± 0.05 µM.
